Holding throughout (test): relative viability (nuclei count vs DMSO), 5 days (fraction); higher = more cells survive
Compound in assay [1]: Cn1cnc2c(F)c(Nc3ccc(Br)cc3Cl)c(C(=O)NOCCO)cc21 [Selumetinib] + Cc1cc(Nc2cc(N3CCN(C)CC3)nc(Sc3ccc(NC(=O)C4CC4)cc3)n2)n[nH]1 [Tozasertib] (partner 0.1 µM)
An outline of the steps:
(§1)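 Medians of duplicate plates are given as relative viability. That measure is the nuclei count in treated wells divided by the count in vehicle wells. Counts were taken on 4× images of lung cancer cell lines in 1536-well plates, 5 days after pin-tool dosing the day after seeding with one drug alone or a fixed anchor-drug dose plus five library-drug doses (not always all listed) in √10 steps.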

Compound in assay [2]: CC1(C)CCC(CN2CCN(c3ccc(C(=O)NS(=O)(=O)c4ccc(NCC5CCOCC5)c([N+](=O)[O-])c4)c(Oc4cnc5[nH]ccc5c4)c3)CC2)=C(c2ccc(Cl)cc2)C1 [Venetoclax] + CS(=O)(=O)N1CCN(Cc2cc3nc(-c4cccc5[nH]ncc45)nc(N4CCOCC4)c3s2)CC1 [Pictilisib] (partner 1 µM)
In outline:
as §1

Compound in assay [3]: CC1(C)CCC(CN2CCN(c3ccc(C(=O)NS(=O)(=O)c4ccc(NCC5CCOCC5)c([N+](=O)[O-])c4)c(Oc4cnc5[nH]ccc5c4)c3)CC2)=C(c2ccc(Cl)cc2)C1 [Venetoclax] + COc1cc2c(Oc3ccc(NC(=O)C4(C(=O)Nc5ccc(F)cc5)CC4)cc3F)ccnc2cc1OCCCN1CCOCC1 [Foretinib] (partner 0.25 µM)
An outline of the steps: as §1

Compound in assay [4]: Cn1cnc2c(F)c(Nc3ccc(Br)cc3Cl)c(C(=O)NOCCO)cc21 [Selumetinib] + O=C(c1cc(Cc2n[nH]c(=O)c3ccccc23)ccc1F)N1CCN(C(=O)C2CC2)CC1 [Olaparib] (partner 8 µM)
In outline: as §1

Consider NCI-H2170, for which the relative viability in assay [1] (first compound 0.02 µM) is 0.746; in assay [1] (first compound 0.06325 µM), 0.848; in assay [1] (first compound 0.2 µM), 0.661; in assay [1] (first compound 0.6325 µM) it was 0.657; in assay [2] (first compound 0.01 µM), 0.266; in assay [2] (first compound 0.03162 µM), 0.3. The relative viability is 0.296 in assay [2] (first compound 0.1 µM); 0.306 in assay [2] (first compound 0.3162 µM); 0.302 in assay [2] (first compound 1 µM); 0.971 in assay [3] (first compound 0.01 µM); 1.01 in assay [3] (first compound 0.03162 µM); 0.939 in assay [3] (first compound 0.1 µM). Moreover, the relative viability amounted to 0.995 in assay [3] (first compound 0.3162 µM); 1 in assay [3] (first compound 1 µM); 0.62 in assay [4] (first compound 0.02 µM); 0.594 in assay [4] (first compound 0.06325 µM); 0.649 in assay [4] (first compound 0.2 µM); 0.568 in assay [4] (first compound 0.6325 µM).

For the cell line NCI-H1395, the relative viability in assay [1] (first compound 0.02 µM) is 0.714; in assay [1] (first compound 0.06325 µM), 0.702; in assay [1] (first compound 0.2 µM) it was 0.718; in assay [1] (first compound 0.6325 µM), 0.748; in assay [2] (first compound 0.01 µM) it was 0.643; in assay [2] (first compound 0.03162 µM), 0.74. The relative viability in assay [2] (first compound 0.1 µM) amounted to 0.611; in assay [2] (first compound 0.3162 µM), 0.602; in assay [2] (first compound 1 µM), 0.633; in assay [3] (first compound 0.01 µM) it was 1.06; in assay [3] (first compound 0.03162 µM), 1.01; in assay [3] (first compound 0.1 µM), 1.04. For the same cell line, the relative viability in assay [3] (first compound 0.3162 µM) came out at 1.07; in assay [3] (first compound 1 µM), 0.996; in assay [4] (first compound 0.02 µM) it was 0.452; in assay [4] (first compound 0.06325 µM), 0.488; in assay [4] (first compound 0.2 µM), 0.482; in assay [4] (first compound 0.6325 µM) it was 0.46.

With LC-2-ad, the relative viability in assay [1] (first compound 0.02 µM) worked out at 0.517; in assay [1] (first compound 0.06325 µM) it was 0.391; in assay [1] (first compound 0.2 µM) it was 0.393; in assay [1] (first compound 0.6325 µM) it was 0.386; in assay [2] (first compound 0.01 µM), 0.45; in assay [2] (first compound 0.03162 µM) it was 0.401. Also, the relative viability stood at 0.387 in assay [2] (first compound 0.1 µM); 0.516 in assay [2] (first compound 0.3162 µM); 0.555 in assay [2] (first compound 1 µM); 1.04 in assay [3] (first compound 0.01 µM); 0.95 in assay [3] (first compound 0.03162 µM); 0.938 in assay [3] (first compound 0.1 µM). Moreover, the relative viability is 0.947 in assay [3] (first compound 0.3162 µM); 0.904 in assay [3] (first compound 1 µM); 0.8 in assay [4] (first compound 0.02 µM); 0.503 in assay [4] (first compound 0.06325 µM); 0.757 in assay [4] (first compound 0.2 µM); 0.672 in assay [4] (first compound 0.6325 µM).

As to NCI-H358, the relative viability in assay [1] (first compound 0.02 µM) came to 0.128; in assay [1] (first compound 0.06325 µM), 0.0891; in assay [1] (first compound 0.2 µM), 0.0985; in assay [1] (first compound 0.6325 µM), 0.0883; in assay [2] (first compound 0.01 µM), 0.323; in assay [2] (first compound 0.03162 µM), 0.364. The relative viability was found to be 0.3 in assay [2] (first compound 0.1 µM); 0.327 in assay [2] (first compound 0.3162 µM); 0.363 in assay [2] (first compound 1 µM); 0.69 in assay [3] (first compound 0.01 µM); 0.66 in assay [3] (first compound 0.03162 µM); 0.694 in assay [3] (first compound 0.1 µM). The relative viability in assay [3] (first compound 0.3162 µM) came out at 0.695; in assay [3] (first compound 1 µM), 0.638; in assay [4] (first compound 0.02 µM), 0.463; in assay [4] (first compound 0.06325 µM) it was 0.367; in assay [4] (first compound 0.2 µM), 0.282; in assay [4] (first compound 0.6325 µM), 0.207.

In the case of PC-3 [JPC-3], the relative viability was found to be 0.991 in assay [1] (first compound 0.02 µM); 0.813 in assay [1] (first compound 0.06325 µM); 0.769 in assay [1] (first compound 0.2 µM); 0.655 in assay [1] (first compound 0.6325 µM); 0.643 in assay [2] (first compound 0.01 µM); 0.872 in assay [2] (first compound 0.03162 µM). Moreover, the relative viability stood at 0.787 in assay [2] (first compound 0.1 µM); 0.782 in assay [2] (first compound 0.3162 µM); 0.67 in assay [2] (first compound 1 µM); 0.939 in assay [3] (first compound 0.01 µM); 1.07 in assay [3] (first compound 0.03162 µM); 1.14 in assay [3] (first compound 0.1 µM). Also, the relative viability was 0.987 in assay [3] (first compound 0.3162 µM); 0.994 in assay [3] (first compound 1 µM); 1.03 in assay [4] (first compound 0.02 µM); 1.07 in assay [4] (first compound 0.06325 µM); 0.992 in assay [4] (first compound 0.2 µM); 0.854 in assay [4] (first compound 0.6325 µM).

On to CAL-12T, for which the relative viability in assay [1] (first compound 0.02 µM) amounted to 0.34; in assay [1] (first compound 0.06325 µM) it was 0.364; in assay [1] (first compound 0.2 µM) it was 0.301; in assay [1] (first compound 0.6325 µM) it was 0.229; in assay [2] (first compound 0.01 µM), 0.36; in assay [2] (first compound 0.03162 µM) it was 0.609. The relative viability in assay [2] (first compound 0.1 µM) is 0.489; in assay [2] (first compound 0.3162 µM) it was 0.419; in assay [2] (first compound 1 µM) it was 0.396; in assay [3] (first compound 0.01 µM), 1.17; in assay [3] (first compound 0.03162 µM), 1.14; in assay [3] (first compound 0.1 µM), 1.13. Also, the relative viability in assay [3] (first compound 0.3162 µM) was 1.18; in assay [3] (first compound 1 µM), 1.05; in assay [4] (first compound 0.02 µM), 0.678; in assay [4] (first compound 0.06325 µM), 0.651; in assay [4] (first compound 0.2 µM), 0.595; in assay [4] (first compound 0.6325 µM) it was 0.564.

Values taken from the supplement of paper PMC10307832.
